pEC50, pIC50: −log10 of the molar value. Activity calls are given as the source filed them. The calls are words filed in the database; no cut-off is given here.
Key:
[1] = Antiarrhythmic activity in patient-derived hiPSC-CMs carrying LQT3 mutation assessed as shortening dose of action potential; assay type: functional, Homo sapiens, iPSC-CM
[2] = Antiarrhythmic activity in patient-derived hiPSC-CMs carrying LQT3 mutation assessed as shortening of action potential duration; assay type: functional, Homo sapiens; settings: ipsc-cm; for pEC50: read-out: EC50
[3] = Antiarrhythmic activity in hiPSC-CMs assessed as cessation dose of cell beating; settings: human, ipsc-cm
[4] = (§1) Antiarrhythmic activity in patient-derived hiPSC-CMs carrying LQT3 mutation assessed as cessation dose for cell beating; assay type: functional, Homo sapiens, iPSC-CM
[5] = Antiarrhythmic activity in hiPSC-CMs assessed as dose for induction of early after depolarizations; settings: human, ipsc-cm
[6] = Antiarrhythmic activity in patient-derived hiPSC-CMs carrying LQT3 mutation assessed as fold shortening of action potential duration relative to control; assay type: functional, Homo sapiens, iPSC-CM; further: test concentration or dose not given here
[7] = Antiarrhythmic activity in hiPSC-CMs assessed as prolongation of action potential; set-up: species or system Homo sapiens, iPSC-CM; settings: for EC50: ipsc-cm; for pEC50: Homo sapiens, iPSC-CM, read-out: EC50
[8] = Antiarrhythmic activity in hiPSC-CMs assessed as fold prolongation of action potential relative to control; settings: human, ipsc-cm
iPSC-CM = test: as §1; assay type: functional; settings: Homo sapiens
[9] = Inhibition of potassium channel (unknown origin) expressed in CHO cells assessed as reduction in potassium current by automated patch clamp method; assay type: cell-based
Homo sapiens = species on record: Homo sapiens; test: Selectivity index, ratio of IC50 for potassium channel (unknown origin) expressed in CHO cells assessed as reduction in potassium current to IC50 for sodium channel (unknown origin) expressed in HEK cells assessed as reduction in late inward sodium current
[10] = Inhibition of sodium channel (unknown origin) expressed in HEK cells assessed as reduction in late inward sodium current by automated patch clamp method; assay type: cell-based; settings: Homo sapiens, HEK293
[11] = Inhibition of sodium channel (unknown origin) expressed in HEK cells assessed as reduction in peak sodium current by automated patch clamp method; assay type: cell-based; settings: Homo sapiens, HEK293

Compound | Activity [1] [µM] | pEC50 [2] | Activity [3] | Activity [4] [µM] | Activity [5] | fold change (FC) [6] | EC50 [7] | pEC50 [7] | fold change (FC) [8] | EC50 [2] | Activity (iPSC-CM) | Activity [8] | pIC50 [9] | Ratio IC50 (Homo sapiens) | pIC50 [10] | pIC50 [11]
Cc1cccc(C)c1OCC(N)C1CCCCC1.Cl (centres undefined) | 0.8 | > 6.10 | 66 µM | 66 | Not Active | 1.136 | Not Active |  |  |  |  |  |  |  |  | 
CC(N)COc1cccc(C(F)(F)F)c1.Cl (centres undefined) | 133 | 4.50 | 200 µM | 200 | Not Active | 1.661 | Not Active |  |  |  |  |  |  |  |  | 
CCCc1ccccc1OCC(C)N.Cl (centres undefined) | 7.4 | 6.05 | 200 µM | 133 | Not Active | 1.192 |  | 5.11 |  |  |  |  |  |  |  | 
CCCc1ccccc1OCC(N)c1ccccc1.Cl (centres undefined) | 2.5 | > 6.10 | 22 µM | 22 | Not Active | 1.321 | Not Active |  |  |  |  |  |  |  |  | 
Cc1cccc(OCC(N)c2ccccc2)c1.Cl (centres undefined) | 22 | > 6.10 | 133 µM | 66 | Not Active | 1.41 | Not Active |  |  |  |  |  |  |  |  | 
Cl.NC(COc1ccc2ccccc2c1)c1ccccc1 (centres undefined) | 2.5 | 5.06 | Not Active | 133 | Not Active | 1.459 | Not Active |  |  |  |  |  |  |  |  | 
CC(N)COc1cc(C(F)(F)F)cc(C(F)(F)F)c1.Cl (centres undefined) | 7.4 | 6.05 | 133 µM | 66 | Not Active | 1.2 | Not Active |  |  |  |  |  |  |  |  | 
Cc1ccc(OCC(N)C2CC2)c(C)c1.Cl (centres undefined) | 66 | 5.87 | 200 µM | 200 | 66 µM | 1.119 |  |  | 2.12 |  |  |  |  |  |  | 
Cc1cccc(OCC(C)N)c1.Cl (centres undefined) | 200 |  | Not Active |  | 66 µM | 1.418 |  | 4.56 |  | Not Active | inactive |  |  |  |  | 
Cc1cccc(C)c1OCC(C)NCc1ccccc1.Cl (centres undefined) | 22 |  | 200 µM | 133 | Not Active | 1.264 |  | 5.24 |  | Not Active |  |  |  |  |  | 
Cc1cccc(C)c1OCC(N)c1ccccc1.Cl (centres undefined) |  |  |  |  |  |  |  |  | 4 |  |  |  |  |  |  | 
Cl.NC(COc1cccc2ccccc12)c1ccccc1 (centres undefined) | 66 | 6.09 | Not Active | 66 | Not Active | 1.316 | Not Active |  |  |  |  |  |  |  |  | 
COCCNC(C)COc1c(C)cccc1C.Cl (centres undefined) | 7.4 | 5.64 | Not Active |  | 66 µM |  |  | 4.49 |  |  | inactive |  |  |  |  | 
Cl.NC(COc1cccc(C(F)(F)F)c1)c1ccccc1 (centres undefined) | 22 | 5.39 | 66 µM | 66 | Not Active | 1.539 | Not Active |  |  |  |  |  |  |  |  | 
Cc1ccc(OCC(N)C2CC2)cc1C.Cl (centres undefined) | 22 |  | 66 µM | 66 | Not Active | 1.18 |  |  |  | Not Active |  | Not Active |  |  |  | 
Cc1cccc(C)c1OCC(N)c1ccc2ccccc2c1.Cl (centres undefined) | 22 | 5.33 | Not Active | 133 | Not Active | 1.309 | Not Active |  |  |  |  |  |  |  |  | 
Cc1cccc(C)c1OCC(NC(=O)c1ccccc1)c1ccccc1 (centres undefined) | 66 | 6.10 | Not Active |  | Not Active | 1.64 |  |  |  |  | inactive | Not Active |  |  |  | 
CCCNC(C)COc1c(C)cccc1C.Cl (centres undefined) | 2.5 |  | 200 µM | 200 | 66 µM | 1.199 |  | 4.98 |  | Not Active |  |  |  |  |  | 

Compound | Activity [1] [µM] | pEC50 [2] | Activity [3] | Activity [4] [µM] | Activity [5] | fold change (FC) [6] | EC50 [7] | pEC50 [7] | fold change (FC) [8] | EC50 [2] | Activity (iPSC-CM) | Activity [8] | pIC50 [9] | Ratio IC50 (Homo sapiens) | pIC50 [10] | pIC50 [11]
Cc1cccc(OCC(N)c2ccccc2)c1C.Cl (centres undefined) | 22 |  | 133 µM | 66 | Not Active | 1.406 | Not Active |  |  | Not Active |  |  | 5.04 | 8.9 | 5.99 | 4.96
Cc1ccc(OCC(N)c2ccccc2)cc1C.Cl (centres undefined) | 22 |  | 66 µM | 66 | Not Active | 1.37 | Not Active |  |  | Not Active |  |  |  |  |  | 
CCc1ccccc1OCC(N)c1ccccc1.Cl (centres undefined) | 7.4 | > 6.10 | 66 µM | 22 | Not Active | 1.979 | Not Active |  |  |  |  |  |  |  |  | 
CCc1ccccc1OCC(C)N.Cl (centres undefined) | 22 | 5.22 | Not Active |  | Not Active | 1.118 |  | 4.63 |  |  | inactive |  |  |  |  | 
CCCCNC(COc1cccc(C)c1C)c1ccccc1.Cl (centres undefined) | 133 | 4.70 | 133 µM | 200 | Not Active | 1.423 |  |  |  |  |  | Not Active |  |  |  | 
Cc1ccc(OCC(N)c2ccccc2)c(C)c1.Cl (centres undefined) | 7.4 | 6.30 | 66 µM | 66 | Not Active | 1.192 | Not Active |  |  |  |  |  |  |  |  | 
Cc1cc(C)cc(OCC(NCCO)c2ccccc2)c1.Cl (centres undefined) | 22 |  | 66 µM | 22 | Not Active | 1.5 |  |  |  | Not Active |  | Not Active |  |  |  | 
CC(=O)NC(COc1c(C)cccc1C)c1ccccc1 (centres undefined) | 22 | 6.10 | Not Active | 66 | Not Active | 1.62 |  |  |  |  |  | Not Active |  |  |  | 
CNC(COc1cccc(C)c1C)c1ccccc1.Cl (centres undefined) | 22 |  | 133 µM | 66 | Not Active | 1.29 |  |  |  | Not Active |  | Not Active |  |  |  | 
COCCNC(COc1cc(C(F)(F)F)cc(C(F)(F)F)c1)c1ccccc1.Cl (centres undefined) | 66 | 5.18 | Not Active | 66 | Not Active | 1.636 |  |  |  |  |  | Not Active |  |  |  | 
Cl.NC(COc1ccccc1OCC(F)(F)F)c1ccccc1 (centres undefined) | 22 | 6.05 | 66 µM | 66 | Not Active | 1.409 | Not Active |  |  |  |  |  |  |  |  | 
COc1ccccc1OCC(N)c1ccccc1.Cl (centres undefined) | 0.8 | > 6.10 | 22 µM | 133 | 7.4 µM | 1.482 |  | 4.49 |  |  |  |  |  |  |  | 
Cc1ccccc1OCC(C)N.Cl (centres undefined) | 22 | > 6.10 | Not Active |  | 200 µM | 1.284 |  | 4.08 |  |  | inactive |  |  |  |  | 
Cl.NC(COc1ccccc1OC(F)(F)F)c1ccccc1 (centres undefined) | 22 | 5.59 | 66 µM | 66 | Not Active | 1.513 | Not Active |  |  |  |  |  |  |  |  | 
CC(N)COc1ccccc1C(F)(F)F.Cl (centres undefined) | 133 |  | Not Active |  | Not Active | 1.375 | Not Active |  |  | Not Active | inactive |  |  |  |  | 
CCCCNC(C)COc1c(C)cccc1C.Cl (centres undefined) | 2.5 | > 6.10 | 133 µM | 66 | 66 µM | 1.18 |  | 5.11 |  |  |  |  |  |  |  | 
CNC(C)COc1c(C)cccc1C.Cl (centres undefined) |  | 5.82 | 66 µM | 133 | 22 µM |  |  | 5.11 |  |  |  |  | 4.36 | 1.2 | 4.44 | 3.91

Reference: ChEMBL document CHEMBL4808187, “Antiarrhythmic Hit to Lead Refinement in a Dish Using Patient-Derived iPSC Cardiomyocytes” (J Med Chem, 2021)
